Test results taken from PubChem BioAssay AID1918943 (Molecular Pharmacology Branch, DTP, NCI, 2023).

System: 855422-203-R-J1-PDC complex spheroid viability
Experiment: Anticancer human tumor 855422-203-R-J1-PDC patient-derived bladder carcinoma cell line growth inhibition
Details: for IC50: curve of first compound; for viability, T/C: stronger effect = lower value
Excerpt: Multicellular complex tumor spheroid response to LSD1 Inhibitor Iadademstat in combination with a variety of drugs and investigational agents in selected tumor cell lines
The current study was undertaken to assess response to LSD1 inhibitors in combination with standard-of-care drugs and investigational agents in solid tumor complex spheroid models as well as in the K-562 leukemia. Complex spheroids include a stromal component modeled by human endothelial cells (HUVEC) and fibroblasts modeled by human mesenchymal stem cells (MSCs). The concentration ranges selected for each drug and investigational agent were based upon clinically achievable concentrations if the clinical Cmax of the agent was known.
Compounds. The drugs and investigational agents used in this study are listed on Table 1. All of the agents used, including staurosporine (NSC755774) and gemcitabine (NSC613327), were obtained from the Developmental Therapeutics Program, NCI. FDA-approved anticancer drugs are available from the NCI at http://dtp.nci.nih.gov/branches/dscb/oncology_drugset_explanation.html. Drugs and investigational agents were >95% pure by proton nuclear magnetic resonance (NMR) and liquid chromatography/mass spectrometry (LC/MS). Stock solutions were prepared at 400x in DMSO, stored at -70 degrees C, and diluted in fresh medium prior to their use. The final concentration of DMSO in cell culture wells never exceeded 0.25% (v/v). The FDA-approved anticancer drug set is available from the Developmental Therapeutics Program at https://dtp.cancer.gov/organization/dscb/obtaining/available_plates.htm. All drugs and investigational agents were tested over a range starting from a high concentration at or near the clinical Cmax and decreasing in half-log increments. If the clinical Cmax for an agent had not been determined, the highest concentration tested was 10 microM.
Cell Lines. The patient-derived cancer cell (PDC) lines: 292921-168-R-J2-PDC, K24384-001-R-PDC, and 521955-158-R2-J5-PDC pancreatic carcinomas, 556581-035-R-J1 ovarian carcinoma, 324938-238-R-J1-PDC, 855422-203-R-J1-PDC and 883617-216-R-J1-PDC urothelial bladder carcinomas, 743489-274-T-PDC renal cell carcinoma, 138582-R-J1 Merkel cell tumor, K60290-347-R-J1 and K57222-313-R-J1-PDC glioblastomas, 653999-131-R-J2-PDC, LG0703-F948-PDC, and 349418-098-R-PDC non-small cell lung carcinomas, 885512-296-R-J2-PDC, 171881-019-R-J1-PDC breast carcinomas and 186277-243-T-J2-PDC and 233499-124-R-J2-PDC colon carcinomas were obtained from the NCI Patient-Derived Models Repository (PDMR, https://pdmr.cancer.gov). The established cell lines NCI/ADR-RES (RRID:CVCL_14520 and OVCAR-5 (RRID:CVCL_1628) ovarian carcinomas, 786-O (RRID:CVCL_1051) and A498 (RRID:CVCL_A498) renal cell carcinoma, NCI-H211 (ATCC, cat. CRL-5824; RRID:CVCL_1529), NCI-H196 (ATCC, cat. CRL-5823, RRID:CVCL_1509), SW 1271 (ATCC, cat. CRL-2177, RRID:CVCL_1716) and NCI-H1876 (ATCC, cat. CRL-5902, RRID:CVCL_1503) small cell lung carcinomas, MDA-MB-231 (RRID:CVCL_0062) and MDA-MB-468 (RRID:CVCL_0419)breast carcinomas (10-12). Pooled donor human umbilical vein endothelial cells (HUVEC, Lonza, cat. CC-2519) and human mesenchymal stem cells (hMSC, Lonza, cat. PT-2501) were purchased from Lonza (Walkersville, MD).
Cell Culture. All cells were maintained in an incubator at 37 degrees C and 5% CO2 with 95% humidity. The PDC lines were cultured according to standard operating procedures established by the NCI PDMR (https://pdmr.cancer.gov). Briefly all PDCs were thawed and cultured in Matrigel-coated flasks prepared with a working solution of 1X Ham's F-12 nutrient mix, without supplementation (Invitrogen, Waltham, MA, cat. 11765054), 100 U/mL penicillin-streptomycin (Invitrogen, cat. 15140122), and 2.5% Matrigel (Corning Inc., Corning, NY, cat. 354248) for the first three passages. […]
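Note: drug exposure lasted 7 days starting on day 3 after seeding.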
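Throughout, for viability, T/C: luminescence viability as percent of DMSO vehicle wells = 100%.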

CC[C@@]1(O)C(=O)OCc2c1cc1n(c2=O)Cc2cc3c(CN(C)C)c(O)ccc3nc2-1 + NC1CC1c1ccc(-c2cccc(O)c2)cc1
IC50 (second compound 0.1 µM): 8.59 nM | IC50 (second compound 0.316 µM): 7.94 nM | IC50 (second compound 1 µM): 7.85 nM | IC50 (second compound 3.16 µM): 6.85 nM | IC50 (second compound 10 µM): 6.35 nM | viability, T/C (second compound 0.1 µM, first compound 0.000316 µM): 97.8% | viability, T/C (second compound 0.1 µM, first compound 0.001 µM): 102% | viability, T/C (second compound 0.1 µM, first compound 0.00316 µM): 98.1% | viability, T/C (second compound 0.1 µM, first compound 0.01 µM): 42.7% | viability, T/C (second compound 0.1 µM, first compound 0.0316 µM): 21.8% | viability, T/C (second compound 0.1 µM, first compound 0.1 µM): 19.4% | viability, T/C (second compound 0.316 µM, first compound 0.000316 µM): 98.9% | viability, T/C (second compound 0.316 µM, first compound 0.001 µM): 102% | viability, T/C (second compound 0.316 µM, first compound 0.00316 µM): 92.8% | viability, T/C (second compound 0.316 µM, first compound 0.01 µM): 39.1% | viability, T/C (second compound 0.316 µM, first compound 0.0316 µM): 22.8% | viability, T/C (second compound 0.316 µM, first compound 0.1 µM): 19.4% | viability, T/C (second compound 1 µM, first compound 0.000316 µM): 90.5% | viability, T/C (second compound 1 µM, first compound 0.001 µM): 94.6% | viability, T/C (second compound 1 µM, first compound 0.00316 µM): 84.8% | viability, T/C (second compound 1 µM, first compound 0.01 µM): 40.5% | viability, T/C (second compound 1 µM, first compound 0.0316 µM): 22.8% | viability, T/C (second compound 1 µM, first compound 0.1 µM): 18.8% | viability, T/C (second compound 3.16 µM, first compound 0.000316 µM): 85.7% | viability, T/C (second compound 3.16 µM, first compound 0.001 µM): 90.3% | viability, T/C (second compound 3.16 µM, first compound 0.00316 µM): 87.2% | viability, T/C (second compound 3.16 µM, first compound 0.01 µM): 31.8% | viability, T/C (second compound 3.16 µM, first compound 0.0316 µM): 20.9% | viability, T/C (second compound 3.16 µM, first compound 0.1 µM): 18.6% | viability, T/C (second compound 10 µM, first compound 0.000316 µM): 81.5% | viability, T/C (second compound 10 µM, first compound 0.001 µM): 97.3% | viability, T/C (second compound 10 µM, first compound 0.00316 µM): 82.2% | viability, T/C (second compound 10 µM, first compound 0.01 µM): 28.9% | viability, T/C (second compound 10 µM, first compound 0.0316 µM): 21.5% | viability, T/C (second compound 10 µM, first compound 0.1 µM): 16.3%

COc1cc(C2c3cc4c(cc3C(OC3OC5COC(C)OC5C(O)C3O)C3COC(=O)C23)OCO4)cc(OC)c1O (stereo not given) + NC1CC1c1ccc(-c2cccc(O)c2)cc1
IC50 (second compound 0.1 µM): 148 nM | IC50 (second compound 0.316 µM): 155 nM | IC50 (second compound 1 µM): 129 nM | IC50 (second compound 3.16 µM): 119 nM | IC50 (second compound 10 µM): 92.1 nM | viability, T/C (second compound 0.1 µM, first compound 0.00949 µM): 96.3% | viability, T/C (second compound 0.1 µM, first compound 0.03 µM): 98.3% | viability, T/C (second compound 0.1 µM, first compound 0.0949 µM): 59.5% | viability, T/C (second compound 0.1 µM, first compound 0.3 µM): 31.1% | viability, T/C (second compound 0.1 µM, first compound 0.949 µM): 19.7% | viability, T/C (second compound 0.1 µM, first compound 3 µM): 10.7% | viability, T/C (second compound 0.316 µM, first compound 0.00949 µM): 101% | viability, T/C (second compound 0.316 µM, first compound 0.03 µM): 102% | viability, T/C (second compound 0.316 µM, first compound 0.0949 µM): 60.9% | viability, T/C (second compound 0.316 µM, first compound 0.3 µM): 32.6% | viability, T/C (second compound 0.316 µM, first compound 0.949 µM): 19.7% | viability, T/C (second compound 0.316 µM, first compound 3 µM): 11.6% | viability, T/C (second compound 1 µM, first compound 0.00949 µM): 91.6% | viability, T/C (second compound 1 µM, first compound 0.03 µM): 95.8% | viability, T/C (second compound 1 µM, first compound 0.0949 µM): 55.4% | viability, T/C (second compound 1 µM, first compound 0.3 µM): 28.9% | viability, T/C (second compound 1 µM, first compound 0.949 µM): 17.6% | viability, T/C (second compound 1 µM, first compound 3 µM): 10.9% | viability, T/C (second compound 3.16 µM, first compound 0.00949 µM): 100% | viability, T/C (second compound 3.16 µM, first compound 0.03 µM): 96.9% | viability, T/C (second compound 3.16 µM, first compound 0.0949 µM): 52.3% | viability, T/C (second compound 3.16 µM, first compound 0.3 µM): 27.9% | viability, T/C (second compound 3.16 µM, first compound 0.949 µM): 16.2% | viability, T/C (second compound 3.16 µM, first compound 3 µM): 8.34% | viability, T/C (second compound 10 µM, first compound 0.00949 µM): 99.5% | viability, T/C (second compound 10 µM, first compound 0.03 µM): 97% | viability, T/C (second compound 10 µM, first compound 0.0949 µM): 46.5% | viability, T/C (second compound 10 µM, first compound 0.3 µM): 26.6% | viability, T/C (second compound 10 µM, first compound 0.949 µM): 18.4% | viability, T/C (second compound 10 µM, first compound 3 µM): 9.12%
